Test results from ChEMBL document CHEMBL1201862, “PubChem BioAssay data set” (2004).
Activity calls are given as the source filed them.

Key:
Genome polyprotein = Genome polyprotein (dengue virus type 2, UniProt P29990); experiment: Dengue-2 NS5 methyltransferase inhibitors, primary screen, biochemical, confirmation dose response (AID 588689); format: functional
[1] = molecular target: T1, E3 ubiquitin-protein ligase XIAP (Homo sapiens, UniProt P98170); experiment: XIAP antagonists, biochemical, IAP family, fluorescence polarization (AID 1018); format: functional
T1 sequence (P98170 whole entry): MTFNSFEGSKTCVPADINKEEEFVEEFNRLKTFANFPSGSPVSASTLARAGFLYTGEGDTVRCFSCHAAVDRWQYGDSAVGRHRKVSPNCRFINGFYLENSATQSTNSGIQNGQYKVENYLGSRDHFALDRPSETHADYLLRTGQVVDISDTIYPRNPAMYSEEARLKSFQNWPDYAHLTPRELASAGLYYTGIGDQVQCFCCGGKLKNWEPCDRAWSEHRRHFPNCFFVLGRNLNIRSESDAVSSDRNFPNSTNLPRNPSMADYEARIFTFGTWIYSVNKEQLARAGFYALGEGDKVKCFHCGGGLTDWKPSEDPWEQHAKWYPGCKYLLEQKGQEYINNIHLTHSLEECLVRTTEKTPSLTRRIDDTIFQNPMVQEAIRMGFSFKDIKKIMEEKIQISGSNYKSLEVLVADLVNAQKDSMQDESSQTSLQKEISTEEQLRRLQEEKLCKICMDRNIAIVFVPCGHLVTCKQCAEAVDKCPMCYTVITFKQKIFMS

[2] = molecular target: T1, E3 ubiquitin-protein ligase XIAP; experiment: Counter Screen using XIAP-Bir3 for Chemical Antagonists of Bir1/2 domains of IAP-family anti-apoptotic proteins. [Related pubchem assays (depositor defined):AID1018, AID1449, AID1514, AID1638, AID1749, AID1750, AID488957, AID488963]
P388 = experiment: cells; format: functional; conditions: Mus musculus
SN12K1 = experiment: cells; format: functional; conditions: Homo sapiens
P388/ADR = experiment: cells; format: functional; conditions: Mus musculus
[3] = molecular target: T2, Sentrin-specific protease 8 (Homo sapiens, UniProt Q96LD8); format: functional;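 further: kinetic enzyme assay of SENP8 cleaving a Nedd8 protein substrate, dose-response confirmation of screening hits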
T2 sequence (Q96LD8 whole entry): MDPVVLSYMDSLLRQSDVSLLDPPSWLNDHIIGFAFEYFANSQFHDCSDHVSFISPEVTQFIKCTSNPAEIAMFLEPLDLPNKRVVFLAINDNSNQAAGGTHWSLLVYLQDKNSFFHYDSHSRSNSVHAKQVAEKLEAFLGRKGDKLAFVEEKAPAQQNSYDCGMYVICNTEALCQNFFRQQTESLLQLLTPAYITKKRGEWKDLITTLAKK

[4] = off-target signal loss in HeLa-CEM21 co-culture – HeLa F-luc CTL cells, cherry-picked, counter-screen for HIV-1 Env fusion inhibitor project, dose response (AID 652040); format: functional, cell-based;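 further: potency for signal decrease marking cytotoxic or nonspecific inhibition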
[5] = inhibitors of clade B AD8 Env fusion, dose response, cell-based, cherry-pick (AID 652062); format: functional;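 further: luciferase signal from cell-cell fusion driven by HIV-1 clade B AD8 Env; potency is for inhibitors of fusion seen as a drop in luminescence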
Aminopeptidase N = molecular target: T3, Aminopeptidase N (Plasmodium falciparum FcB1/Columbia, UniProt O96935); experiment: P. falciparum M1AAP inhibitors, biochemical, fluorogenic H-Leu-NHMec substrate, 1536-well (AID 1445); set-up: species or system Plasmodium falciparum 3D7, 3D7
T3 sequence (O96935 whole entry): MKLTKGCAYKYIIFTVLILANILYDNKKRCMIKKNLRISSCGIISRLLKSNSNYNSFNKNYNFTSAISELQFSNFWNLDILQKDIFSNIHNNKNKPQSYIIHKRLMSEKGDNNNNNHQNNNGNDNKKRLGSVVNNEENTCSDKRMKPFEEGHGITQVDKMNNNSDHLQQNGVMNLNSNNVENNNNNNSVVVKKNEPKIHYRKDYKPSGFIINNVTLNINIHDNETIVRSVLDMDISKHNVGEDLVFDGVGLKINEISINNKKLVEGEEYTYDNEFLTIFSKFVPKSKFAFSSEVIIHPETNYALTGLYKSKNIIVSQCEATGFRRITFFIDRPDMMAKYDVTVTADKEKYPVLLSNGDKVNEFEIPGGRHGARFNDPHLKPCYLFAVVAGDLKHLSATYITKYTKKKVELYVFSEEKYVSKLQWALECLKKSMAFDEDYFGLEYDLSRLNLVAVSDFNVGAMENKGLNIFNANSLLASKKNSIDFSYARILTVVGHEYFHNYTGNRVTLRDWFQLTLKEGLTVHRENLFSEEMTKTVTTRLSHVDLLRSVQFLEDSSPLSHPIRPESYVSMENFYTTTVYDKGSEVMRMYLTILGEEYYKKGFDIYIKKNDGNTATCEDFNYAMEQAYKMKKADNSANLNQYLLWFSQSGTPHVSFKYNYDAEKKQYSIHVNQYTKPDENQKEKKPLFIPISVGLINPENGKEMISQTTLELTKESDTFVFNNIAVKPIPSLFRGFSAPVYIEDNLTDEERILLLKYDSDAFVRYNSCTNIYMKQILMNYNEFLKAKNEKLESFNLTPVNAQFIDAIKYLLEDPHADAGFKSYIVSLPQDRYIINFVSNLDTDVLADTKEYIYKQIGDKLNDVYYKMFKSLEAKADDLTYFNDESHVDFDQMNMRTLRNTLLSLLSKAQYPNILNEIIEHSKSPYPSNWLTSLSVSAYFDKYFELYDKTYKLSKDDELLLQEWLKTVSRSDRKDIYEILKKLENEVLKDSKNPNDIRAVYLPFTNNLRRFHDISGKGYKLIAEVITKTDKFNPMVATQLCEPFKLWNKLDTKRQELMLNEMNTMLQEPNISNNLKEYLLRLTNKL

[6] = miR-122 activators in hepatoma reporter cells, dose response, cell-based, Huh7 psiCHECK-miR122, Renilla luciferase, cherry-picked (AID 651956); format: functional;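 further: huh7 hepatoma cells stably carrying a psiCHECK-2 miR-122 sensor plasmid; renilla luciferase signal reporting endogenous miR-122 activity after 48 h compound exposure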
[7] = HEp-2 cell cytotoxicity, dose response, cytotoxicity control for RSV inhibitor project, HTS (AID 2410); format: functional; conditions: human respiratory syncytial virus
cells = format: functional
[8] = growth suppression of beta-catenin-knockout colon cells, dose response, cell-based, HCT116, human colon tumor (AID 1045); format: functional;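 further: HCT116 colon tumor cells with beta catenin knocked out; cells exposed to compound for 60 hours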
[9] = molecular target: Heat shock protein HSP 90-alpha (Homo sapiens, UniProt P07900); format: functional, organism-based
[10] = THP-1 cell cytotoxicity, dose response, cytotoxicity control for non-replicating M. tuberculosis project (AID 489025); format: functional
[11] = growth suppression of PTEN-null colon cells, dose response, cell-based, HCT116 PTEN knockout (AID 1047); format: functional;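 further: HCT116 colon tumor cells with PTEN knocked out; cells exposed to compound for 60 hours before readout; potency for loss of cell viability measured by luminescence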

Genome polyprotein, sequence (P29990 2492-3391 limits assumed): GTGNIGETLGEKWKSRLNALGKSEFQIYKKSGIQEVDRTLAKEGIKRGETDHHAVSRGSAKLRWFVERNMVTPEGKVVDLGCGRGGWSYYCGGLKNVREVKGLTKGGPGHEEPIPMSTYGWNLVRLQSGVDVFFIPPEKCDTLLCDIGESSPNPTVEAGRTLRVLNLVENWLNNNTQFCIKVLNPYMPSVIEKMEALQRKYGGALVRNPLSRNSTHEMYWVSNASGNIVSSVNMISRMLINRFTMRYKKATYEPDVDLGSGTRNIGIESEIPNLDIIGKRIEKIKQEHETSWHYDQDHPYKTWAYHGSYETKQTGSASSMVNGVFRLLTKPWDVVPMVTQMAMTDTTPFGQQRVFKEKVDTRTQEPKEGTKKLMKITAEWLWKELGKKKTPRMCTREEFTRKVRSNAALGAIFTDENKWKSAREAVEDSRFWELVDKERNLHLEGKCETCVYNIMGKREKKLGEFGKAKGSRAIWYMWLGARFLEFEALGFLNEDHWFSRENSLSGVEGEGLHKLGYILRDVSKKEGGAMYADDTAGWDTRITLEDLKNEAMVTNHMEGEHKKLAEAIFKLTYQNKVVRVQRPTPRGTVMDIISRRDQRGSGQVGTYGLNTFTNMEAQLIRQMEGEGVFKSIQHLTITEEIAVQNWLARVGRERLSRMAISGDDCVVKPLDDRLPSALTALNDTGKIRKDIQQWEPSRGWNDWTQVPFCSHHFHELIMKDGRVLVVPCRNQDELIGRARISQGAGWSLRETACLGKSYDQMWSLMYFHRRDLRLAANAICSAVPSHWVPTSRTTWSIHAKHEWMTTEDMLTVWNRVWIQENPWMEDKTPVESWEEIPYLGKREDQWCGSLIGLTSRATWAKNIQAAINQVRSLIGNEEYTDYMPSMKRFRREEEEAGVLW

With `O=C(O)c1cccc2c1C(=O)c1ccc(-c3ccc(F)cc3OCc3ccccc3)cc1S2(=O)=O` the IC50 (Genome polyprotein) was 50.5 µM (active).
In the case of `COc1ccc(S(=O)(=O)CCC(=O)NC2CCCCC2)cc1`, the IC50 [1] is reported as > 100 µM (not active) and the IC50 [2] is reported as > 100 µM (inactive).
With `COc1ccc(/C=C2\CCNC2=O)cc1` the GI50 (P388) was > 100 µM (inactive), the GI50 (SN12K1) was > 100 µM (inactive) and the GI50 (P388/ADR) was 82.4 µM (inactive).
For `CCCc1nc(SCC(=O)Nc2ccc(S(=O)(=O)N(C)C)cc2)c2ccccc2n1`, the IC50 [1] was > 100 µM (not active) and the IC50 [2] was > 100 µM (inactive).
For `O=C(Nc1c(-c2ccccc2)[nH][nH]c1=O)c1cnccn1`, the IC50 [3] was 42.5 µM (active).
In the case of `c1ccc(N=Nc2cn[nH]c2-c2ccco2)cc1`, the IC50 [1] is reported as > 100 µM (not active) and the IC50 [2] is reported as > 100 µM (inactive).
In the case of `CCN1CCN(CCCNC(=O)Cn2cc3c(n2)CCCC3)CC1`, the IC50 [1] is reported as > 100 µM (not active) and the IC50 [2] is reported as > 100 µM (inactive).
With `COC(=O)/C=C/C(=O)N1CCN(c2ccccc2)CC1` the IC50 [1] was > 100 µM (not active) and the IC50 [2] was > 100 µM (inactive).
With `Cn1c(SCc2nc(-c3ccc(Cl)cc3)no2)nnc1-c1cccs1` the AC50 [4] was 3.1 µM (active) and the AC50 [5] was 9.06 µM (active).
In the case of `COc1cccc(C2CC(c3c(O)nc4ccc(Cl)cc4c3-c3ccccc3)=NN2S(C)(=O)=O)c1OC` (centres undefined), the IC50 (Aminopeptidase N) is reported as 78.2 µM (active).
For `OC(c1cc(C(F)(F)F)nc2c(Cl)cc(Cl)cc12)C1CCCCN1` (centres undefined), the AC50 [6] was 21.6 µM (active) and the CC50 [7] was 15.8 µM (active).
For `COc1ccccc1Cc1nc(-c2ccccc2)nn(C2OC(COC(C)=O)C(OC(C)=O)C(OC(C)=O)C2OC(C)=O)c1=S` (centres undefined), the GI50 (P388) was 21.9 µM (inactive), the GI50 (SN12K1) was 9.95 µM (inactive) and the GI50 (P388/ADR) was 19.6 µM (inactive).
In the case of `NC(=O)c1ccc(/N=C/c2ccc([N+](=O)[O-])s2)cc1`, the IC50 (cells) is reported as 13.4 µM (active), the EC50 [8] is reported as 5.3 µM (active) and the IC50 [3] is reported as 2.47 µM (active). For the same molecule, the AC50 [9] was 1.98 µM (active), the CC50 [10] was 19.2 µM (active) and the EC50 [11] was 5.94 µM (active).
